Data from article PMC6403271, “Characterization, mechanism of action and optimization of activity of a novel peptide-peptoid hybrid against bacterial pathogens involved in canine skin infections” (Scientific Reports, 2019).
Square brackets hold non-standard residues; d marks the D form. Peptide text beside a SMILES is read from it. N(1-naphthylmethyl)Gly = O=C(O)CNCc1cccc2ccccc12; 2Nal = N[C@@H](Cc1ccc2ccccc2c1)C(=O)O; d1Nal = N[C@H](Cc1cccc2ccccc12)C(=O)O; N(4-MeBn)Gly = Cc1ccc(CNCC(=O)O)cc1; dNle = CCCC[C@@H](N)C(=O)O; Nle = CCCC[C@H](N)C(=O)O; NBuGly = CCCCNCC(=O)O

Tests used:
MRSP E104 [1] = assay: Flow cytometry (TO/PI) of antimicrobial-exposed cells; type: cell-based, Staphylococcus pseudintermedius; details: MRSP E104, lysis concentration (1x MIC), 3 µg/ml, 1 h
Protocol: Freshly grown cultures (OD 0.2 at 600 nm) of MRSP E104 were exposed to 3 µg/ml of B1 or 2.5 µg/ml of nisin for 1 h and diluted 1:10 in flow cytometry analysis buffer (PBS supplemented with 1 mM EDTA, 0.01% Tween 20 and filtered by 0.22 µm membrane). Diluted cells were stained with 420 nM thiazole orange (TO, Sigma) and 48 µM propidium iodide (PI, Sigma) and analysed using BD ACCURI C6 flow cytometer (BD Biosciences). Unstained cells were used as negative control. Finally, the differentially labelled bacterial populations in antimicrobial-exposed cultures were plotted under FL3(red)/FL1(green) axis using the instrument’s software and categorised into four different conditions: P1 (unstained), P2 (dead cells), P3 (injured cells) and P4 (live cells).

P. aeruginosa isolates = assay: MIC, panel of 50 canine P. aeruginosa isolates; type: cell-based, Pseudomonas aeruginosa
Protocol: Activity of B1 was tested on 50P. aeruginosa isolates and 57S. pseudintermedius isolates (including 7 MRSP) that had been isolated in the diagnostic laboratory Sund Vet Diagnostik (University of Copenhagen) from various infections in dogs between 2009 and 2011. Representative MRSP (C22963), MSSA, and P. aeruginosa (26314) were used for testing the first set of B1 analogues.
MIC determination was performed by broth microdilution according to the Clinical and Laboratory Standard Institute (CLSI, M31-A3, 2008)[62]. In brief, each bacterial strain was diluted to concentration of 5 × 10^5 CFU/mL in Mueller Hinton broth II (MHB II) media (Oxoid) and added to a two-fold serial dilution of peptides and peptide-peptoid hybrids concentrations ranging from 1 to 64 µg/ml in 96-well plates (Nunc Internationals, Rochester, NY). The MICs were determined as a lowest concentration showing no visible growth after incubation for 18 hours at 37 °C. Experiments were performed in triplicates on two different days.

[2] = system: cell wall synthesis in MRSP E104; assay: Macromolecule biosynthesis rate, cell wall (3H-glucosamine); type: cell-based, Staphylococcus pseudintermedius; details: MRSP E104, 1.5 µg/mL, 20 min
Protocol: Macromolecule biosynthesis rate was measured in MRSP E104 following a protocol adapted from Ling et al.[65]. Briefly, E104 overnight culture was sub-cultured 1:100 in MHB II and grown up to OD 0.2 at 600 nm. Cells were pelleted down by centrifugation and resuspended in fresh medium followed by incubation for 20 min with B1 or nisin at 1.5 µg/ml and 1.25 µg/ml, respectively, and radiolabeled precursor: (50µCi) 3H-Thymidine (PerkinElmer) and (5µCi) 3H-glucosamine hydrochloride per ml for DNA and cell wall, respectively. A positive control without antimicrobial was maintained. After incubation, samples were precipitated with equal volume of cold 30% TCA (Sigma) on ice. Precipitates were filtered on a membrane filter and subsequently subjected to two washes of cold 15% TCA and two washes of cold water using vacuum manifold. Subsequently, filters were air dried overnight and then transferred to 10 ml scintillation vials. Finally, scintillation fluid (3 ml) was added to each vial and ^3H count was taken in Beckman Coulter LS6500 liquid scintillation counter for one minute. The radioactive counts of the control samples were considered to have 100% precursor incorporation and macromolecule synthesis. The percentage rates of the antimicrobial-exposed samples were calculated accordingly. Each experiment was performed with replicates and the average rates of incorporation were plotted.

[3] = topical delivery from cream formulation; cited from earlier work
Pronase = details: cited from earlier work
MRSP E104 [4] = assay: Time-kill kinetics, MRSP E104; type: cell-based, Staphylococcus pseudintermedius
Protocol: Time kill assays were performed in triplicate, meaning that every value is the average of three different samplings. Time–kill kinetic assays were performed using P. aeruginosa (26314), MRSP E104 and/or MRSP C22963 to determine the cell killing activity of B1 and two of its most promising analogues (compounds 23 and 26) based on prior antimicrobial susceptibility testing. The method reported by Blondeau et al.[63] was followed with minor modifications. […] After 0, 15, 30, 60, 120, 180 and 300 min of growth, 100 μL aliquots were collected and 10-fold serially diluted. Twenty μL of cell suspension from each dilution were spotted in triplicate on blood agar plates followed by 16–18 h incubation at 37 °C and determination of colony forming units (CFU).

MRSP E104 [5] = assay: High-throughput growth curves (BioScreen); type: cell-based, Staphylococcus pseudintermedius; details: 3 µg/ml; decrease of OD over time
Protocol: The effects of B1 on the growth of a reference MRSP strain (ST71, E104) were evaluated using BioScreen (Oy Growth Curves Ab LTd, Finland). A well characterized antimicrobial peptide, Nisin, was used as a positive control. […] The OD600 of each micro-culture was measured and recorded every 15 min after a 5 second pause of shaking in automatic mode. The recorded ODs were plotted against time to prepare the growth curves. The assay was performed with technical and biological replicates, and one representative result was presented.

MSSA (ATCC 29213) = type: cell-based, Staphylococcus aureus; details: ATCC 29213, 18 h
Procedure, shortened: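 Broth microdilution per CLSI M31-A3 on canine clinical isolates plus reference MRSP C22963, MSSA and P. aeruginosa 26314; 5 × 10^5 CFU/mL in MHB II with two-fold dilutions from 1 to 64 µg/ml. MIC = lowest concentration without visible growth after 18 hours at 37 °C; triplicates on two days.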

MRSP C22963 = assay: Time-kill kinetics, MRSP C22963; type: cell-based, Staphylococcus pseudintermedius; details: for time to complete killing of the MRSP strain: all tested concentrations at or above the MIC
Protocol: (§1) Time kill assays were performed in triplicate, meaning that every value is the average of three different samplings. Time–kill kinetic assays were performed using P. aeruginosa (26314), MRSP E104 and/or MRSP C22963 to determine the cell killing activity of B1 and two of its most promising analogues (compounds 23 and 26) based on prior antimicrobial susceptibility testing. The method reported by Blondeau et al.[63] was followed with minor modifications. Briefly, the assay was performed in MHB II with concentrations corresponding to 0.5, 1, 2 and 4 times the MIC of the strain. After 0, 15, 30, 60, 120, 180 and 300 min of growth, 100 μL aliquots were collected and 10-fold serially diluted. Twenty μL of cell suspension from each dilution were spotted in triplicate on blood agar plates followed by 16–18 h incubation at 37 °C and determination of colony forming units (CFU).

[6] = Precipitation in time-kill media; type: physicochemical; details: time-kill experiment against P. aeruginosa, MHB II
Protocol: as §1

Row | Compound | flow cytometry PI/TO staining (MRSP E104 [1]) | MICs against a panel of 50 P. aeruginosa isolates (P. aeruginosa isolates) [µg/mL] | reduction in cell wall synthesis [2] [%] | skin penetration after administration [3] | degradation by protease mix Pronase (Pronase) [%] | time to complete killing of MRSP E104 (MRSP E104 [4]; 2 × MIC) [h] | time to complete killing of MRSP E104 (MRSP E104 [4]; 4 × MIC) [h] | time to kill MRSP (MRSP E104 [4]; 8 x MIC) | growth curve effect on MRSP E104 (MRSP E104 [5]) | Minimum Inhibitory Concentration MSSA (ATCC 29213) (MSSA (ATCC 29213)) [µg/mL] | time to complete killing of the MRSP strain (MRSP C22963) [h] | precipitation in the media [6] | time to complete killing of MRSP C22963 (MRSP C22963; 0.5x MIC) [h]
1 | CCCCN(CC(=O)N[C@@H](CCCCN)C(=O)N(CC(=O)N(CC(=O)N(CC(N)=O)Cc1cccc2ccccc12)Cc1ccc(C)cc1)Cc1cccc2ccccc12)C(=O)[C@H](CCCCN)NC(=O)[C@@H](N)CCCCN [B1, Lys-Lys-(NBu)Gly-Lys-(N1-Nal)Gly-(N4-MeBn)Gly-(N1-Nal)Gly] (H-KK[NBuGly]K[N(1-naphthylmethyl)Gly][N(4-MeBn)Gly][N(1-naphthylmethyl)Gly]-NH2) | Cell death | 8 to 16 | 20 | no skin penetration | 38 | 2 | 1 | less than 30 min | cell lysis | 8 to 16 | – | – | –
2 | CCCC[C@H](NC(=O)[C@H](CCCCN)NC(=O)[C@H](CCCCN)NC(=O)[C@@H](N)CCCCN)C(=O)N[C@@H](Cc1ccc2ccccc2c1)C(=O)N[C@@H](Cc1ccccc1)C(=O)N[C@@H](Cc1ccc2ccccc2c1)C(N)=O [Compound 23, Lys-Lys-Lys-Nle-(2-Nal)Ala-Phe-(2-Nal)Ala] (H-KKK[Nle][2Nal]F[2Nal]-NH2) | – | – | – | – | – | – | – | – | – | – | ≤ 2 | – | –
3 | CCCC[C@@H](NC(=O)[C@H](CCCCN)NC(=O)[C@H](CCCCN)NC(=O)[C@@H](N)CCCCN)C(=O)N[C@H](Cc1cccc2ccccc12)C(=O)N[C@H](Cc1ccccc1)C(=O)N[C@H](Cc1cccc2ccccc12)C(N)=O [Compound 26, Lys-Lys-Lys-nle-(1-Nal)ala-phe-(1-Nal)ala] (H-KKK[dNle][d1Nal][dF][d1Nal]-NH2; N-terminus assumed) | – | – | – | – | – | – | – | – | – | – | ≤ 2 | precipitated after 15 min | ≤ 1
